Test results as given in US11787810B2, “Diacylglyceride O-acyltransferase 2 inhibitors” (Merck Sharp & Dohme Corp., priority 2020, dated 2023).

biological target: human DGAT2 (hDGAT2) (Homo sapiens (Human), UniProt Q96PD7); assay: DGAT2 enzymatic activity assay (13C18-triolein formation, LC/MS/MS); assay type: biochemical; conditions: hDGAT2 Sf-9 membrane prep, 25 μM diolein, 5 μM 13C oleoyl-CoA; read-out: Human DGAT2 IC50
Description: Sf-9 insect cells were maintained in Grace's insect cell culture medium with 10% heated-inactivated fetal bovine serum, 1% Pluronic F-68 and 0.14 μg/ml Kanamycine sulfate at 27° C. in a shaker incubator. After infection with untagged baculovirus expressing human DGAT2 (hDGAT2) at multiplicity of infection (MOI) 3 for 48 hours, cells were harvested. Cell pellets were suspended in buffer containing 10 mM Tris-HCl pH 7.5, 1 mM EDTA, 250 mM sucrose and Complete Protease Inhibitor Cocktail (Sigma Aldrich), and sonicated on ice. Cell debris were removed by centrifugation at 2000×g for 15 minutes. Membrane fractions were isolated by ultracentrifugation (100,000×g), resuspended in the same buffer, and frozen (−80° C.) for later use. The protein concentration was determined with the Pierce™ BCA Protein Assay Kit (Thermo Fisher Scientific). Expression of protein levels was analyzed by immunoblotting with rabbit anti-DGAT2 antibody (Abcam, ab102831) and donkey anti-rabbit IgG H&L Alexa Fluor® 647 (Abcam, ab150075) followed by detection using Typhoon FLA9000 (GE Healthcare).
LC/MS/MS analyses were performed using Thermal Fisher's LX4-TSQ Vantage system. This system consists of an Agilent binary high-performance liquid chromatography (HPLC) pumps and a TSQ Vantage triple quadrupole MS/MS instrument. For each sample, 2 μL samples from the top organic layer of in-plate liquid-liquid extraction were injected onto a Thermo Betabasic C4 column (2.1 mm×20 mm, 5 μm particle size). The samples were then eluted using the following conditions; mobile phase: Isopropanol:acetonitrile/10 mM ammonium formate=50/35/15 (v/v/v), flow rate: 0.8 mL/min, temperature: 25° C. Data was acquired in positive mode using a heated electrospray ionization (HESI) interface. The operational parameters for the TSQ Vantage MS/MS instrument were a spray voltage of 3000 V, capillary temperature of 280° C., vaporizer temperature 400° C., sheath gas 45 arbitrary unit, Aux gas 10 arbitrary units, S-lens 165 and collision gas 1.0 mTorr. […] (SRM) chromatograms of ^13C18-triolein (Q1: 920.8>Q3:621.3) and internal standard ^13C21-triolein (Q1: 923.8>Q3:617.3) were collected for 33 sec. The peak area was integrated by Xcalibur Quan software. The ratio between the ^13C18triolein generated in the reaction and spiked in internal standard ^13C21-triolein was used to generate percentage inhibition and IC50 values. Compound percentage inhibition was calculated by the following formula: Inhibition %=1-[(compound response−low control)/(high control−low control)]×100%. Potent compounds were titrated and IC50 were calculated by 4 parameter sigmoidal curve fitting formula.
DGAT2 activity was determined by measuring the amount of enzymatic product ^13C18-triolein (^13C-1,2,3-Tri(cis-9-octadecenoyl)glycerol) using the membrane prep mentioned above. The assay was carried out in ABgene 384-well assay plates in a final volume of 25 μL at rt. The assay mixture contained the following: assay buffer (100 mM Tris·Cl, pH 7.0, 20 mM MgCl2, 5% ethanol), 25 μM of diolein, 5 μM of ^13C oleoyl-CoA and 8 ng/μL of DGAT2 membrane.

Chain of human DGAT2 (hDGAT2) (Q96PD7 whole entry): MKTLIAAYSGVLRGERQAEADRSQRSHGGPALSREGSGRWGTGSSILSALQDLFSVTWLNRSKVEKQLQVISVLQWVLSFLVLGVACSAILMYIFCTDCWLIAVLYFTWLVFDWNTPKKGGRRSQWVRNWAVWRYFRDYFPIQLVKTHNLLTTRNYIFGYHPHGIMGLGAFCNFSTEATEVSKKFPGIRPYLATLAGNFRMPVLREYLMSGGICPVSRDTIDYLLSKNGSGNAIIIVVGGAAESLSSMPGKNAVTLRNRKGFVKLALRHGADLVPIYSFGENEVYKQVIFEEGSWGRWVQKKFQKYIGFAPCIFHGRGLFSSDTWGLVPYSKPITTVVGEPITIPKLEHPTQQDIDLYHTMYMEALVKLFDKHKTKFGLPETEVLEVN

| SMILES | IC50 [µM] |
| --- | --- |
| C[C@]1(NC(=O)c2cnc3c(-c4cccc(OC(F)F)c4)nn(-c4ccc(F)cc4)c3c2)CCS(=O)(=O)C1 [Example 1, (S)-3-(3-(difluoromethoxy)phenyl)-1-(4-fluorophenyl)-N-(3-methyl-1,1-dioxidotetrahydrothiophen-3-yl)-1H-pyrazolo[4,3-b]pyridine-6-carboxamide] | 0.0008 |
| O=C(N[C@@H]1CCC[C@H]1N1CCOCC1)c1cnc2c(-c3cccc(OC(F)F)c3)cn(-c3ncc(F)cn3)c2c1 [Example 7, 3-(3-(difluoromethoxy)phenyl)-1-(5-fluoropyrimidin-2-yl)-N-((1R,2R)-2-morpholinocyclopentyl)-1H-pyrrolo[3,2-b]pyridine-6-carboxamide] | 0.045 |
| C[C@]1(NC(=O)c2cnc3c(-c4cccc(OC(F)F)c4)cn(-c4ccc(F)cc4)c3c2)CCS(=O)(=O)C1 [Example 9, (S)-3-(3-(difluoromethoxy)phenyl)-1-(4-fluorophenyl)-N-(3-methyl-1,1-dioxidotetrahydrothiophen-3-yl)-1H-pyrrolo[3,2-b]pyridine-6-carboxamide] | 0.0068 |
| N[C@H]1CCC[C@H]1NC(=O)c1cnc2c(-c3cccc(OC(F)F)c3)cn(-c3ncc(F)cn3)c2c1 [Example 20, N-((1R,2S)-2-aminocyclopentyl)-3-(3-(difluoromethoxy)phenyl)-1-(5-fluoropyrimidin-2-yl)-1H-pyrrolo[3,2-b]pyridine-6-carboxamide] | 0.189 |
| C[C@]1(NC(=O)c2cnc3c(-c4cccc(OC(F)F)c4)cn(-c4ccc(F)cc4)c3n2)CCS(=O)(=O)C1 [Example 24, (S)-7-(3-(difluoromethoxy)phenyl)-5-(4-fluorophenyl)-N-(3-methyl-1,1-dioxidotetrahydrothiophen-3-yl)-5H-pyrrolo[2,3-b]pyrazine-3-carboxamide] | 0.05 |
| CC(C)n1nc(-c2cccc(OC(F)F)c2)c2ncc(C(=O)NC3(C)CS(=O)(=O)C3)cc21 [Example 25, 3-[3-(difluoromethoxy)phenyl]-1-isopropyl-N-(3-methyl-1,1-dioxidothietan-3-yl)-1H-pyrazolo[4,3-b]pyridine-6-carboxamide] | 0.0047 |
| CC(C)n1cc(-c2cccc(OC(F)F)c2)c2ncc(C(=O)NC3(C)CS(=O)(=O)C3)cc21 [Example 37, 3-(3-(difluoromethoxy)phenyl)-1-isopropyl-N-(3-methyl-1,1-dioxidothietan-3-yl)-1H-pyrrolo[3,2-b]pyridine-6-carboxamide] | 0.05 |
| CC(C)n1nc(-c2cccc(OC(F)F)c2)c2ncc(C(=O)NC(C)(C)CO)cc21 [Example 42, 3-(3-(difluoromethoxy)phenyl)-N-(1-hydroxy-2-methylpropan-2-yl)-1-isopropyl-1H-pyrazolo[4,3-b]pyridine-6-carboxamide] | 0.038 |
| CCOc1cc(-c2nn(C(C)C)c3cc(C(=O)NC4(C)CS(=O)(=O)C4)cnc23)c(F)cn1 [Example 126, 3-(2-ethoxy-5-fluoropyridin-4-yl)-1-isopropyl-N-(3-methyl-1,1-dioxidothietan-3-yl)-1H-pyrazolo[4,3-b]pyridine-6-carboxamide] | 0.027 |
| CC(C)n1nc(-c2cccc(C3(O)CC3)c2)c2ncc(C(=O)NC3(C)CS(=O)(=O)C3)cc21 [Example 127, 3-(3-(1-Hydroxycyclopropyl)phenyl)-1-isopropyl-N-(3-methyl-1,1-dioxidothietan-3-yl)-1H-pyrazolo[4,3-b]pyridine-6-carboxamide] | 0.298 |
| COC1(c2cccc(-c3nn(C(C)C)c4cc(C(=O)NC5(C)CS(=O)(=O)C5)cnc34)c2)CC1 [Example 128, 1-isopropyl-3-(3-(1-methoxycyclopropyl)phenyl)-N-(3-methyl-1,1-dioxidothietan-3-yl)-1H-pyrazolo[4,3-b]pyridine-6-carboxamide] | 5.45 |
| CC1(NC(=O)c2cnc3c(-c4cccc(OC(F)F)c4)nn(C(C)(C)C(C)(C)O)c3c2)CS(=O)(=O)C1 [Example 129, 3-(3-(difluoromethoxy)phenyl)-1-(3-hydroxy-2,3-dimethylbutan-2-yl)-N-(3-methyl-1,1-dioxidothietan-3-yl)-1H-pyrazolo[4,3-b]pyridine-6-carboxamide] | 0.097 |
| CN1CCC(n2nc(-c3cccc(OC(F)F)c3)c3ncc(C(=O)NC4(C)CS(=O)(=O)C4)cc32)CC1 [Example 134, 3-(3-(Difluoromethoxy)phenyl)-N-(3-methyl-1,1-dioxidothietan-3-yl)-1-(1-methylpiperidin-4-yl)-1H-pyrazolo[4,3-b]pyridine-6-carboxamide] | 0.033 |

same assay, conditions: table head without 'Human'; same membrane assay; read-out: DGAT2 IC50

| SMILES | IC50 [µM] |
| --- | --- |
| CC(n1nc(-c2cc(OC(F)F)ccc2F)c2ncc(C(=O)NC3(C)CS(=O)(=O)C3)cc21)C(C)(C)O (single isomer, unassigned) [Example 131b, 3-(5-(difluoromethoxy)-2-fluorophenyl)-1-(3-hydroxy-3-methylbutan-2-yl)-N-(3-methyl-1,1-dioxidothietan-3-yl)-1H-pyrazolo[4,3-b]pyridine-6-carboxamide] | 0.11 |
| CC(n1nc(-c2cc(OC(F)(F)F)ccc2F)c2ncc(C(=O)NC3(C)CS(=O)(=O)C3)cc21)C(C)(C)O (single isomer, unassigned) [Example 132a, 3-(2-fluoro-5-(trifluoromethoxy)phenyl)-1-(3-hydroxy-3-methylbutan-2-yl)-N-(3-methyl-1,1-dioxidothietan-3-yl)-1H-pyrazolo[4,3-b]pyridine-6-carboxamide] | 0.231 |
| CC(n1nc(-c2cc(OC(F)(F)F)ccc2F)c2ncc(C(=O)NC3(C)CS(=O)(=O)C3)cc21)C(C)(C)O (single isomer, unassigned) [Example 132b, 3-(2-fluoro-5-(trifluoromethoxy)phenyl)-1-(3-hydroxy-3-methylbutan-2-yl)-N-(3-methyl-1,1-dioxidothietan-3-yl)-1H-pyrazolo[4,3-b]pyridine-6-carboxamide] | 0.215 |
| CC(n1nc(-c2cc(OC(F)F)ncc2F)c2cnc(C(=O)NC3(C)CS(=O)(=O)C3)cc21)C(C)(C)O (single isomer, unassigned) [Example 133a, 3-(2-(difluoromethoxy)-5-fluoropyridin-4-yl)-1-(3-hydroxy-3-methylbutan-2-yl)-N-(3-methyl-1,1-dioxidothietan-3-yl)-1H-pyrazolo[4,3-c]pyridine-6-carboxamide] | 0.862 |
| CC(n1nc(-c2cc(OC(F)F)ncc2F)c2cnc(C(=O)NC3(C)CS(=O)(=O)C3)cc21)C(C)(C)O (single isomer, unassigned) [Example 133b, 3-(2-(difluoromethoxy)-5-fluoropyridin-4-yl)-1-(3-hydroxy-3-methylbutan-2-yl)-N-(3-methyl-1,1-dioxidothietan-3-yl)-1H-pyrazolo[4,3-c]pyridine-6-carboxamide] | 0.015 |
